# Key:
# [1] = test system: human primary pancreatic cancer cells (A6L and 185); assay: Viability of adherent cells after inhibitor pretreatment; assay type: cell-based; conditions: pretreatment with inhibitor
# [2] = test system: A6L and 185 cells; assay: Sphere formation assay (CSC self-renewal); assay type: cell-based, human; conditions: for sphere formation / sphere forming capacity: 10, 20, and 40µM, 7 days, vs control
# Description: (§1) Human pancreatic tumours were obtained with written informed consent from all patients. For in vitro studies, tissue fragments were minced, enzymatically digested with collagenase (Stem Cell Technologies, Vancouver, BC) for 90 min at 37°C (Mueller TM et al. Gastroenterology 2009 137(3):1102-13) and after centrifugation for 5 min at 1200 rpm the pellets were resuspended and cultured in RPMI, 10%FBS and 50units/ml pen/strep. Pancreatic cancer spheres were generated by placing the pancreatic cancer cell in suspension (20,000 cells/ml) in serum-free DMEM/F12 media, supplemented with B27 (1:50, Invitrogen), 20ng/ml bFGF and 50units/ml pen/strep. After 7 days of incubation, spheres were typically >75µm big with ~97% CD133high. For serial passaging, 7-day-old spheres were harvested using 40µm cell strainers, dissociated to single cells with trypsin, and then re-grown for 7 days. Cultures were kept no longer than 4 weeks after recovery from frozen stocks.
# [3] = test system: phosphorylation of Smad2; assay: Smad2 phosphorylation assay (western blot); assay type: cell-based, human; conditions: simultaneous treatment with inhibitor and rNodal or rActivin
# From the text: PVDF membranes containing electrophoretically separated proteins from human primary pancreatic cancer cells and spheres were probed with mouse antibodies against Nodal (ab556676; Abcam, Inc.), Smad2 (3103; Cell Signalling Technology, Inc.), GAPDH (ab8245-100; Abcam, Inc.), Smad4 (sc-7966; Santa Cruz Biotechnology, Inc.) and rabbit antibody against pSmad2 (3108; Cell Signalling Technology, Inc.), treated with peroxidase-conjugated goat anti-mouse or anti-rabbit Ig secondary antibody (Sigma), and then visualized by enhanced chemoluminescence (Amersham, Inc.). Human primary pancreatic cancer cells were serum-starved for 3h in RPMI (GIBCO). Following starvation, the cells were incubated for 30 min at 37°C with recombinant human Nodal or Activin proteins (300 ng/ml and 100 ng/ml, respectively; R&D) either alone or in the presence of the SB431542 (10 µM, Sigma). Anti-Smad2 and anti-phospho-Smad2 (Ser465/467) Antibodies (Cell Signalling Technology) were used, following the manufacturer's instructions.
# [4] = test system: CD133+ population; assay: CD133 content by flow cytometry after in vitro treatment; assay type: cell-based, human
# Description: To identify pancreatic CSC, the following antibodies were used: anti-CD133/1-APC or PE; CD133/2-APC (all Miltenyi, Bergisch-Gladbach, Germany) was used for purity testing after MACSorting; EpCAM-FITC, CD44-PE or appropriate isotype-matched control antibodies (Beckton Dickinson, Heidelberg, Germany). Propidium iodide or 7-AAD was used for exclusion of dead cells (eBiosciences, San Diego, CA). Samples were analysed by flow cytometry using a FACS Canto II (BD) and data were analysed with FlowJo 9.2 software (Ashland, Oregon).
# [5] = test system: CD133+ cells; assay: Cell cycle analysis with BrdU flow kit; assay type: cell-based, human
# [6] = test system: pancreatic cancer cells (185 and A6L); assay: Invasion assay, modified Boyden chamber with Matrigel; assay type: cell-based, human; conditions: for effects of Nodal and Activin on cell invasiveness: cells pretreated with inhibitor at 20µM
# Description: Invasion assays were performed using modified Boyden chambers filled with Matrigel™ (BioCoat®, BD Biosciences, Heidelberg, Germany). […] 500µl of cell suspensions containing 5x10^4 pre-treated or untreated cells were added to the Matrigel™ coated inserts, and 750µl of serum-free medium with or without 300ng/ml recombinant human Nodal was added to the lower chamber. The assay chambers were incubated for 22h at 37°C. Invaded cells were fixed in 4% PFA and stained with DAPI. The ratios of cells in the lower chamber versus total seeded cells (in per cent) were calculated.
# [7] = test system: L3.6pl cells; assay: In vivo treatment of established orthotopic pancreatic cancer cell line xenografts; set-up: species or system female NMRI nu/nu mice
# Description: (§2) Single-cell suspensions were either orthotopically implanted into the pancreas of female NMRI nu/nu mice (Janvier, Le Genest-Saint-Isle, France) or 2mm3 pieces of primary, in vivo expanded pancreatic cancer tissue were subcutaneously implanted, and mice were randomized to the respective treatment groups. Size and weight of the pancreatic tumours were monitored. Gemcitabine was administered twice a week (125 mg/kg i.p.). SB431542 was used at 25 mg/kg and CUR199691 at 100 mg/kg, both by oral gavages twice daily for three weeks.
# Mice were analysed with a 3-Tesla MRI system (Magnetom Tim Trio, Siemens, Erlangen, Germany) using a dedicated small animal coil and T2-weighted scanning.
# [8] = test system: cells isolated from harvested tumours; assay: Sphere formation capacity of cells isolated from treated tumours on day 100; assay type: cell-based, human; conditions: cells from tumours harvested on day 100 (Fig. 7G, left panel)
# Description: as §1
# [9] = test system: xenotransplanted human pancreatic cancer; conditions: in vivo therapy with gemcitabine; cited from earlier work
# [10] = test system: primary human pancreatic cancer tissue xenografts; assay: In vivo treatment of primary human pancreatic cancer tissue xenografts; set-up: species or system female NMRI nu/nu mice
# Description: as §2
# [11] = test system: CD133+ CSC; conditions: treatment with gemcitabine; cited from earlier work
smiles,measurement,setting,value
NC(=O)c1ccc(-c2nc(-c3ccc4c(c3)OCO4)c(-c3ccccn3)[nH]2)cc1 [SB431542],viability of adherent cells,[1],did not affect the viability of adherent cells
same,sphere formation / sphere forming capacity,[2],"dose-dependently (10, 20, and 40µM) blocked sphere formation as compared to control"
same,reversal of rNodal/rActivin-enhanced phosphorylation of Smad2,[3],almost reversed this enhanced phosphorylation of Smad2
same,time until the CD133+ population replenished,[4]; after four days of treatment with SB431542 alone,≤ 48 h
same,CD133 content / CD133+ population,[4]; four days of treatment,marked decrease in CD133 content
same,percentage of CD133+ cells in S phase,[5],did not affect the percentage of CD133+ cells in S phase
same,percentage of apoptotic CD133+ cells,[5]; result in words,nor did it increase the percentage of apoptotic CD133+ cells
same,effects of Nodal and Activin on cell invasiveness,[6],significantly attenuated the effects of Nodal and Activin on cell invasiveness
same,cell invasion of sphere-derived cells,[6]; conditioned medium from PSC cells in the lower compartment (Fig. 17B),Cell invasion was abrogated
Cc1cccc(-c2nn3c(c2-c2ccnc4ccc(C(N)=O)cc24)CCC3)n1 [LY2157299],viability of adherent cells,[1],did not affect the viability of adherent cells
same,sphere formation / sphere forming capacity,[2],did not display any effects on sphere forming capacity
same,sphere forming capacity,[2]; summary statement of Example 8 (Fig. 4A),neither the Alk5 inhibitor LY2157299 nor the TGF-β receptor II neutralizing antibodies resulted in significant changes of sphere forming capacity
same,enhanced invasiveness of CSC treated with rTGF-β,[6]; Alk5 inhibitor with rTGF-β,abrogated the enhanced invasiveness of CSC treated with rTGF-β
"Nc1ccn([C@@H]2O[C@H](CO)[C@@H](O)C2(F)F)c(=O)n1 [gemcitabine, 4-amino-l-[3,3-difluoro-4-hydroxy-5-(hydroxymethyl)tetrahydrofuran-2-yl]-1 H-pyrimidin-2-one]",survival / long-term survival,[7]; follow-up until day 100 (Fig. 7C),significantly prolonged survival
same,tumour take rate,[7]; orthotopic cell line xenografts,100%
same,median survival,"[7]; orthotopic cell line xenografts, treatment started one week after injection, control 32 days",54 days
same,sphere forming capacity,[8],strong sphere forming capacity
same,CD133+ cells in the residual tumour tissue,[9],significant enrichment of CD133+ cells in the residual tumour tissue
same,histological differentiation of remaining tumours,[10]; day 100,poor differentiation
same,tumour growth after gemcitabine withdrawal,[10]; long-term follow-up,reaccelerated in growth
same,effect on CD133+ CSC,[11],no detectable effect
Cc1cccc(-c2[nH]c(C(C)(C)C)nc2-c2ccc3c(c2)OCO3)n1 [SB505124],effects of Nodal and Activin on cell invasiveness,[6],significantly attenuated the effects of Nodal and Activin on cell invasiveness

# — EP2589385A1, “TRIPLE COMBINATION FOR THE TREATMENT OF CANCER” (Fundación Centro Nacional de Investigaciones Oncológicas, priority 2011, dated 2013)
